Columns and labels:
[1] = In vitro permeation, Franz cells, cadaver skin finite dose technique (Example 1); assay type: in vitro ADME, human
Protocol: The in vitro human cadaver skin model has proven to be a valuable tool for the study of percutaneous absorption and the determination of topically applied drugs. The model uses human cadaver skin mounted in specially designed diffusion cells that allow the skin to be maintained at a temperature and humidity that match typical in vivo conditions (Franz, T. J., “Percutaneous absorption: on the relevance of in vitro data,” J. Invest Dermatol 64:190-195 (1975)). A finite dose (for example: 4-7 mg/cm^2) of formulation is applied to the outer surface of the skin and drug absorption is measured by monitoring its rate of appearance in the receptor solution bathing the inner surface of the skin. Data defining total absorption, rate of absorption, as well as skin content can be accurately determined in this model. The method has historic precedent for accurately predicting in vivo percutaneous absorption kinetics (Franz, T. J., “The finite dose technique as a valid in vitro model for the study of percutaneous absorption in man,” In: Skin: Drug Application and Evaluation of Environmental Hazards, Current Problems in Dermatology, vol. 7, G. Simon, Z. Paster, M Klingberg, M. Kaye (Eds), Basel, Switzerland, S. Karger, pages 58-68 (1978)).
Percutaneous absorption was measured using the in vitro cadaver skin finite dose technique. Cryo-preserved, human cadaver trunk skin was obtained from a skin bank and stored in water-impermeable plastic bags at <−70° C. until used.
Prior to the experiment, skin was removed from the bag, placed in approximately 37° C. water for five minutes, and then cut into sections large enough to fit on 1 cm^2 Franz Cells (Crown Glass Co., Somerville, N.J.). Briefly, skin samples were prepared as follows. A small volume of phosphate buffered saline (PBS) was used to cover the bottom of the Petri dishes. Skin disks generally depleted of fat layers were placed in the Petri dishes for hydration. A Stadie-Riggs manual tissue microtome was used for slicing excised skin samples. Approximately 2 mL of PBS was placed into the middle cavity of the microtome as slicing lubricant. Skin disks were placed, dermal side up, into the middle cavity of the microtome. Filter paper was soaked with PBS, inserted in the cavity just above the skin disk. The filter paper prevented the dermis from sliding onto the top of the cutting block and helped to insure more precise cutting. When all three blades of the microtome were assembled, the microtome was turned into the upright position. Using a regular and careful sawing motion the skin tissue was sliced in cross-section. The skin tissue slice was removed with the tweezers and placed in the Petri dish for hydration. Each skin slice was wrapped in Parafilm® (Pechiney Plastic Packaging, Inc., Chicago, Ill.) laboratory film and placed in water-impermeable plastic bags. Skin samples were identified by the donor and the provider code. If further storage was necessary, the skin slices were stored in the freezer at −20° C. until further use.
The epidermal cell (chimney) was left open to ambient laboratory conditions. The dermal cell was filled with receptor solution. Receptor solution for in vitro skin permeations was typically an isotonic saline at physiological pH. The receptor solution may also contain a drug solubilizer, for example, to increase lipophilic drug solubility in the receptor phase. […]

[2] = cited from earlier work
[3] = human
Protocol: In vitro data can be extrapolated to in vivo conditions in order to evaluate the gel dose for bioequivalence to ropinirole oral absorption. […] Therefore, an intermediate oral dose of 6 mg/day with BA=50% delivers a systemic dose of 3 mg/day. […] This corresponds to a daily dose of 9.5 mg ropinirole HCl (equivalent to 8.3 mg free base).
Based on these pharmacokinetic parameters, the daily input rate can be estimated using the following equation: Ka=CL×Cp, where Ka is the daily input rate (absorption rate), CL the drug plasma clearance, and Cp the plasma concentration.
Scaled to the clinical daily input rate, the required skin surface can be determined using the following equation: S=Ka/JSS, wherein S is the application skin surface area, and JSS is the in vitro steady-state drug flux.
Alternatively, the gel amount could be increased by 3.7 times (1 g instead of 0.3 g), and be applied to a 3.7 times larger skin area (185 cm instead of 50 cm^2).
This corresponds to a daily dose of 15 mg ropinirole HCl (equivalent to 13 mg free base).

[4] = Titration with NaOH for the experimental ionization profile in a hydroalcoholic base; assay type: physicochemical; conditions: hydroalcoholic vehicle (ethanol 45%, propylene glycol 20%, water 25.58%), not gellified; read-out: apparent pKa from the experimental ionization profile
Description: The following formulation was used for titration to determine the experimental ionization profile of ropinirole in a hydroalcoholic base: Ropinirole hydrochloride* 3.42% w/w, myristyl alcohol 1.00% w/w, diethylene glycol monoethylether 5.00% w/w, propylene glycol 20.00% w/w, absolute ethanol 45.00% w/w, and purified water 25.58% w/w (total 100; * ropinirole HCl 3.42% (MW=296.84) corresponds to ropinirole free base 3% (MW=260.38), ratio 1.14). The formulation was not gellified.
The ropinirole HC1 solution was titrated with NaOH 0.1 M solution. The solvent was the same as the formulation, in order to keep a constant composition. NaOH was chosen so as to limit dilution of the titrated formulation; but no dilution correction was made. The formulation was titrated by 0.5-1 mL increments where the pH change was small. Increments were reduced to 0.1 mL near the equivalence point. The pH was monitored with a glass electrode (Mettler Toledo InLab 432, Mettler-Toledo, Inc., Columbus, Ohio), and recorded with a Mettler Toledo MP. 230 pH meter (Mettler-Toledo, Inc., Columbus, Ohio).
Based on the titration curve, the ionization rate [BH] was calculated according to Henderson-Hasselbalch equation for weak base: […]

[5] = water at 20° C.; cited from earlier work
[6] = tested on: guinea pigs; test: Skin sensitization, induction and challenge; assay type: in vivo; conditions: guinea pigs induced (with and without Freund's Complete Adjuvant) and challenged with 5% ropinirole HCl
[7] = EtOH(45)/Water(40)/PG(10), 5% drug

Row | SMILES | skin permeation characteristics [1, 7] | peak flux ([1]; EtOH(45)/Water(40)/PG(10), 5% drug, pH 9.5-10.0) | ropinirole remained in the epidermis ([1]; after 48 hours) | Bioavailability in the receptor chamber fluid ([1]; percent dose recovered in receptor fluid) | Body clearance ([2]; REQUIP Prescribing Information) | maximum plasma levels (Cmax) ([2]; repeated oral administration, 6 mg/day in 3 divided doses, steady state (Taylor et al.)) | Ka, daily input rate (absorption rate), Ka=CL×Cp [3] | pKa [4] | solubility in water [5] | sensitization category [6]
1 | CCCN(CCC)CCc1cccc2c1CC(=O)N2 [ropinirole free base] | good permeation characteristics | 3.5 μg/cm^2/hr | Approximately 20% | about 40% | – | – | – | – | – | –
2 | CCCN(CCC)CCc1cccc2c1CC(=O)N2 [ropinirole] | – | – | – | – | about 47 L/h | 7.4 ng/mL | 347.8 µg/h | 8 | – | –
3 | CCCN(CCC)CCc1cccc2c1CC(=O)N2.Cl [Ropinirole hydrochloride, 4-[2-(dipropylamino)-ethyl]-1,3-dihydro-2H-indol-2-one monohydrochloride] | did not permeate well | – | – | – | – | – | – | – | 133 mg/mL | mild sensitizer
